Structures are written as SMILES.

Consider `CCc1cc(C(=O)O)ccc1N=C1SCC2(CCCC2)N1C1CCCC1` [Entry 253, 2-(4-carboxy-2-ethylphenylimino)-1-cyclopentyl-3-thia-1-azaspiro[4.4]nonane], for which the melting point (usually the temperature, or range, at which the solid turns liquid) fell in the range of 208 to 209 °C.
The value for `CCc1cc(C(C)=O)ccc1N=C1SCC2(CCCC2)N1C1CCCC1` [Entry 255, 2-(4-acetyl-2-ethylphenylimino)-1-cyclopentyl-3-thia-1-azaspiro[4.4]nonane] was 114 to 115 °C.
To `CCc1cc(/C=C/[N+](=O)[O-])ccc1N=C1SCC2(CCCC2)N1C1CCCC1` [Entry 269, 2-(2-ethyl-4-((1E)-2-nitrovinyl)phenylimino)-1-cyclopentyl-3-thia-1-azaspiro[4.4]nonane] belongs 141 to 142 °C; to `CCc1cc(C=C(C#N)C#N)ccc1N=C1SCC2(CCCC2)N1C1CCCC1` [Entry 271, 2-(2-ethyl-4-(2,2-dicyanovinyl)phenylimino)-1-cyclopentyl-3-thia-1-azaspiro[4.4]nonane], 135 to 136 °C; to `Cc1cc([N+](=O)[O-])ccc1N=C1SC(=O)CN1CC(C)C` [Entry 310, 2-(2-methyl-4-nitrophenylimino)-3-isobutyl-1,3-thiazolidin-5-one], 152 °C.
To `CCc1cc(C#N)ccc1N=C1OCC(C)(C)N1C1CCCC1` [Entry 319, 2-(4-cyano-2-ethylphenylimino)-3-cyclopentyl-4,4-dimethyl-1,3-oxazolidine] belongs 112 to 114 °C.
